Laboratory results taken from the CheMixHub viscosity set.
“And” between values parts separate entries of the source, which are not always exact repeats. Identical values can stand only once.

Assay: xn = mol fraction of the nth substance listed

C1COCCO1 + O
Conditions	viscosity
293.15 K, 101.3 kPa, x2 = 0.0459	1.306 mPa·s
293.15 K, 101.3 kPa, x2 = 0.09407	1.32 mPa·s
293.15 K, 101.3 kPa, x2 = 0.2053	1.399 mPa·s and 1.4 mPa·s
293.15 K, 101.3 kPa, x2 = 0.3758	1.621 mPa·s and 1.619 mPa·s
293.15 K, 101.3 kPa, x2 = 0.5701	1.982 mPa·s and 1.981 mPa·s
293.15 K, 101.3 kPa, x2 = 0.7952	2.264 mPa·s and 2.263 mPa·s
293.15 K, 101.3 kPa, x2 = 0.8661	2.06 mPa·s
293.15 K, 101.3 kPa, x2 = 0.9391	1.577 mPa·s and 1.576 mPa·s
293.15 K, 101.3 kPa, x2 = 0.9742	1.258 mPa·s and 1.259 mPa·s
293.15 K, 101.33 kPa, x1 = 0.0222	1.221 mPa·s
293.15 K, 101.33 kPa, x1 = 0.0486	1.464 mPa·s
293.15 K, 101.33 kPa, x1 = 0.0806	1.728 mPa·s
293.15 K, 101.33 kPa, x1 = 0.12	1.984 mPa·s
293.15 K, 101.33 kPa, x1 = 0.143	2.092 mPa·s
293.15 K, 101.33 kPa, x1 = 0.17	2.183 mPa·s
293.15 K, 101.33 kPa, x1 = 0.2	2.246 mPa·s
293.15 K, 101.33 kPa, x1 = 0.235	2.268 mPa·s
293.15 K, 101.33 kPa, x1 = 0.25	2.266 mPa·s
293.15 K, 101.33 kPa, x1 = 0.275	2.252 mPa·s
293.15 K, 101.33 kPa, x1 = 0.323	2.185 mPa·s
293.15 K, 101.33 kPa, x1 = 0.334	2.151 mPa·s
293.15 K, 101.33 kPa, x1 = 0.38	2.072 mPa·s
293.15 K, 101.33 kPa, x1 = 0.45	1.927 mPa·s
293.15 K, 101.33 kPa, x1 = 0.5	1.817 mPa·s
293.15 K, 101.33 kPa, x1 = 0.537	1.758 mPa·s
293.15 K, 101.33 kPa, x1 = 0.648	1.569 mPa·s
293.15 K, 101.33 kPa, x1 = 0.716	1.478 mPa·s
293.15 K, 101.33 kPa, x1 = 0.795	1.396 mPa·s
293.15 K, 101.33 kPa, x1 = 0.846	1.349 mPa·s
293.15 K, 101.33 kPa, x1 = 0.918	1.312 mPa·s
298 K, 101 kPa, x2 = 0.5236	1.647 mPa·s
298 K, 101 kPa, x2 = 0.6752	1.886 mPa·s
298 K, 101 kPa, x2 = 0.7636	1.965 mPa·s
298 K, 101 kPa, x2 = 0.88	1.701 mPa·s
298 K, 101 kPa, x2 = 0.9514	1.271 mPa·s
298.15 K, 101 kPa, x1 = 0.141	1.784 mPa·s
298.15 K, 101 kPa, x1 = 0.271	1.923 mPa·s
298.15 K, 101.3 kPa, x2 = 0.0459	1.196 mPa·s
298.15 K, 101.3 kPa, x2 = 0.09407	1.207 mPa·s
298.15 K, 101.3 kPa, x2 = 0.2053	1.275 mPa·s and 1.274 mPa·s
298.15 K, 101.3 kPa, x2 = 0.3758	1.458 mPa·s
298.15 K, 101.3 kPa, x2 = 0.5701	1.761 mPa·s
298.15 K, 101.3 kPa, x2 = 0.7952	1.976 mPa·s and 1.975 mPa·s
298.15 K, 101.3 kPa, x2 = 0.8661	1.796 mPa·s
298.15 K, 101.3 kPa, x2 = 0.9391	1.38 mPa·s and 1.381 mPa·s
298.15 K, 101.3 kPa, x2 = 0.9742	1.109 mPa·s and 1.108 mPa·s
298.15 K, 101.33 kPa, x1 = 0.0222	1.076 mPa·s
298.15 K, 101.33 kPa, x1 = 0.0486	1.283 mPa·s
298.15 K, 101.33 kPa, x1 = 0.0806	1.508 mPa·s
298.15 K, 101.33 kPa, x1 = 0.12	1.728 mPa·s
298.15 K, 101.33 kPa, x1 = 0.143	1.822 mPa·s
298.15 K, 101.33 kPa, x1 = 0.17	1.901 mPa·s
298.15 K, 101.33 kPa, x1 = 0.2	1.957 mPa·s
298.15 K, 101.33 kPa, x1 = 0.235	1.98 mPa·s
298.15 K, 101.33 kPa, x1 = 0.25	1.983 mPa·s
298.15 K, 101.33 kPa, x1 = 0.275	1.96 mPa·s
298.15 K, 101.33 kPa, x1 = 0.323	1.917 mPa·s
298.15 K, 101.33 kPa, x1 = 0.334	1.894 mPa·s
298.15 K, 101.33 kPa, x1 = 0.38	1.831 mPa·s
298.15 K, 101.33 kPa, x1 = 0.45	1.715 mPa·s
298.15 K, 101.33 kPa, x1 = 0.5	1.623 mPa·s
298.15 K, 101.33 kPa, x1 = 0.537	1.572 mPa·s
298.15 K, 101.33 kPa, x1 = 0.648	1.414 mPa·s
298.15 K, 101.33 kPa, x1 = 0.716	1.336 mPa·s
298.15 K, 101.33 kPa, x1 = 0.795	1.274 mPa·s
298.15 K, 101.33 kPa, x1 = 0.846	1.23 mPa·s
298.15 K, 101.33 kPa, x1 = 0.918	1.2 mPa·s
298.15 K, 101.33 kPa, x2 = 0.1129	1.222 mPa·s
298.15 K, 101.33 kPa, x2 = 0.21	1.291 mPa·s
298.15 K, 101.33 kPa, x2 = 0.3108	1.384 mPa·s
298.15 K, 101.33 kPa, x2 = 0.4096	1.51 mPa·s
298.15 K, 101.33 kPa, x2 = 0.4986	1.629 mPa·s
298.15 K, 101.33 kPa, x2 = 0.6059	1.797 mPa·s
298.15 K, 101.33 kPa, x2 = 0.6983	1.913 mPa·s
298.15 K, 101.33 kPa, x2 = 0.8288	1.857 mPa·s
298.15 K, 101.33 kPa, x2 = 0.9021	1.57 mPa·s
303.1 K, 101 kPa, x2 = 0.228	1.147 mPa·s
303.1 K, 101 kPa, x2 = 0.2741	1.174 mPa·s
303.1 K, 101 kPa, x2 = 0.4187	1.261 mPa·s
303.1 K, 101 kPa, x2 = 0.7038	1.709 mPa·s
303.1 K, 101 kPa, x2 = 0.8099	1.733 mPa·s
303.1 K, 101 kPa, x2 = 0.8346	1.661 mPa·s
303.1 K, 101 kPa, x2 = 0.8791	1.543 mPa·s
303.1 K, 101 kPa, x2 = 0.9194	1.35 mPa·s
303.1 K, 101 kPa, x2 = 0.9508	1.162 mPa·s
303.1 K, 101 kPa, x2 = 0.9786	0.968 mPa·s
303.15 K, 101.3 kPa, x2 = 0.0459	1.098 mPa·s
303.15 K, 101.3 kPa, x2 = 0.09407	1.108 mPa·s and 1.107 mPa·s
